Data published in patent US5194437A, “1,4-disubstituted piperazines” (Adir et Compagnie, priority 1990, dated 1993).
pKi: −log10 of the molar value. Where two headings read alike, the source gives them in different places.

Key:
5-HT1A receptors [1] = target: T1, 5-HT1A receptors (Rattus norvegicus, UniProt P19327); assay: Body temperature (hypothermia), agonist and antagonist activity; type: in vivo, male Wistar rats; design: from tissue; host or cells: whole animal, male Wistar rat (in vivo); settings: for Hypothermia M.E.D.: agonist: induction of hypothermia, s.c., minimum effective dose; for ED50: rat, sc, 1 h, antagonist: inhibition of hypothermia induced by 8-OH-DPAT 0.16 mg/kg s.c., compound s.c. 60 min before test, read-out: Hypothermia ID50 (95% C.L.)
T1 sequence (P19327 1-422): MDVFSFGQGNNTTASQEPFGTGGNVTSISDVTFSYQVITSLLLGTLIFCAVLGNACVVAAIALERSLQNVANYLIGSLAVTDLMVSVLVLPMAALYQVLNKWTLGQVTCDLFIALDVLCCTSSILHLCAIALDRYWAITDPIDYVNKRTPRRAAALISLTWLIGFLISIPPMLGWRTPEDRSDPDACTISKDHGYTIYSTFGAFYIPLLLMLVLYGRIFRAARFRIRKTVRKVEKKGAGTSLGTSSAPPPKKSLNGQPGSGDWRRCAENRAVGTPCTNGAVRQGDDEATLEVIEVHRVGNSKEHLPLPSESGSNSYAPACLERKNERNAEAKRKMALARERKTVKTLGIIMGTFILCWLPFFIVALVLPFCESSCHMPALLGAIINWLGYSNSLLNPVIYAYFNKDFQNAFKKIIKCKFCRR
Experimental: (§1) The tests were carried out on male Wistar rats weighing from 200 to 220 g which had free access to food and drinking water, in standard cages.
(§2) The animals are housed individually for the hypothermia, corticosterone secretion and flat body posture tests, and in groups of three for the tail flick test.
(§3) The laboratory temperature is kept at 21°±1° C., with 60 ±5% humidity. The rats are subjected to a light/dark cycle of 12 hours/12 hours (the light cycle commencing at 7.30 a.m.).
(§4) a/ General procedure for tests of agonist and antagonist activities on 5-HT1A receptors.
(§5) The test compounds were administered subcutaneously (s.c.) 60 minutes before the start of the test, that is to say 30 minutes before the vehicle (agonist responses) or 8-OH-DPAT (antagonist responses).
(§6) In all the tests, the solvent is used in parallel as the control. The animals were allowed to rest in their cages during the time between the injections and evaluation.
(§7) For the agonist studies, the solvent was administered at a dose of 1 ml/kg s.c. 30 minutes before the start of the test. For the antagonist studies, doses of 8-OH-DPAT inducing sub-maximal responses were chosen, i.e. doses of 0.63, 0.16, 0.16 and 0.16 mg/kg s.c. for the tail flick test, the flat body posture test, the corticosterone secretion test and the hypothermia test, respectively.
The rats are immobilised and a lubricated digital thermometer (Thermistoprobe from Testotherm, Basle, Switzerland) is inserted into the rectum to a depth of 5 cm. 30 seconds after insertion, the temperature is read off a digital scale. The percentage inhibition is calculated with the aid of the formula mentioned above.
(§8) In general, after variance analysis, the results are subjected to Dunnett's test. Results are regarded as significant if p<0.05.
(§9) The doses of the test compounds are all expressed in terms of the base. Unless otherwise mentioned, all the compounds were dissolved in sterile water (to which a few drops of lactic acid are added, if necessary) and administered at a volume of 1 ml/kg s.c..

5-HT1A receptors [2] = target: T1, 5-HT1A receptors; assay: In vitro binding test, 5-HT1A receptors, [3]H-8-OH-DPAT, rat hippocampus membranes; design: Hippocampus from the brains of decapitated rats; from tissue; host or cells: rat hippocampus membranes (male Wistar); species or system rat (male Wistar); settings: for Ki: read-out: Affinity (pKi) (converted)
Experimental: Hippocampus from the brains of decapitated rats was immediately frozen on dry ice and then stored at -80° C. until preparation of membranes. The tissue was homogenised at 4° C. in the appropriate buffer using a Polytron (Brinkman Instruments - Lucerne - Switzerland) and centrifuged at 20,000 rpm.
Incubation was carried out at 25° C. for 30 minutes. Non-specific binding was defined by 10 μM of 5-HT. The tests were terminated by rapid filtration by means of a Brandel harvester over glass-fibre filters pretreated with 0.1% polyethyleneimine.
The inhibitory concentration 50 values (IC50) were determined according to method 8 of Tallarida R. J. and Murray R. B., Manual of pharmacological calculations with computer programs, Springer Verlag, N.Y. (1987).
The pKi was calculated according to the formula [formula] where [L] is the concentration of the hot ligand ([3]H-8-OH-DPAT, 0.4 nM) and Kd is the apparent dissociation constant determined from saturation experiments.
The test substances were dissolved in the incubation buffer.

5-HT1A receptors [3] = target: T1, 5-HT1A receptors; assay: Spontaneous tail flick test (STF), agonist and antagonist activity; type: in vivo, male Wistar rats; design: from tissue; host or cells: whole animal, male Wistar rat (in vivo); settings: for ED50: rat, sc, 1 h, antagonist: inhibition of STF induced by 8-OH-DPAT 0.63 mg/kg s.c., compound s.c. 60 min before test, read-out: Spontaneous tail flicks ID50 (95% C.L.); for Spontaneous tail flicks M.E.D.: agonist: induction of STF, s.c., minimum effective dose
Experimental: as §1, §2, §3, §4, §5, §6, §7
Tail flicks were determined in animals restrained in horizontal, opaque plastics cylinders, the animals' tails hanging freely over the edge of the laboratory bench. After a 5-minute adaptation period, the number of movements made in 5 minutes is recorded. One STF is defined as the raising of the tail to a level higher than the level of the body axis [Millan M. J. et al., J. Pharmacol. Exp. Ther., 256, 973-982 (1990)].
as §8, §9

5-HT1A receptors [4] = target: T1, 5-HT1A receptors; assay: Corticosterone secretion (CS), plasma, agonist and antagonist activity; type: in vivo, male Wistar rats; design: from tissue; host or cells: whole animal, male Wistar rat (in vivo); settings: for Corticosterone secretion M.E.D.: agonist: induction of CS, s.c., minimum effective dose; for ED50: rat, sc, 1 h, antagonist: inhibition of CS induced by 8-OH-DPAT 0.16 mg/kg s.c., compound s.c. 60 min before test, read-out: Corticosterone secretion ID50 (95% C.L.)
Experimental: as §1, §2, §3, §4, §5, §6, §7
(§10) The same animals were employed for the evaluation of the effect of the test compounds on the FBP and for the determination of the plasma levels of CS. All the tests were carried out in the morning between 10.30 and 12.30, i.e. when the cicardian levels of CS are at their lowest.
(§11) The presence of FBP is defined by a characteristic posture of the animal. The animal is then in a position of ventral decubitus with the hind limbs clearly in extension. 5 minutes after observation of FBP, the animals are decapitated and the trunk blood is collected in chilled tubes containing 50 μl of a 10% EDTA solution. After centrifugation at 4000 rpm, the plasma is removed and stored at -30° C. until assay.
CS was determined using a radio-competitive assay for a CS-binding protein in plasma: transcortin. The latter is obtained from monkey serum. Separation of the CS-transcortin complexes from free CS was effected by means of a solution of dextran and active charcoal. The detection limit was 50 pg/tube. Intra- and inter-assay variations were 5 and 15%, respectively [cf. Rivet J. M. et al., Eur. J. Pharmacol., 183, 634-635 (1990)].
Since the base levels of CS in plasma are never zero, the following formula was used to calculate the percentage inhibition of plasmatic CS induced by 8-OH-DPAT: [formula]
as §8, §9

5-HT1A receptors [5] = target: T1, 5-HT1A receptors; assay: Flat body posture (FBP), agonist response and antagonism of 8-OH-DPAT; type: in vivo, male Wistar rats; design: from tissue; host or cells: whole animal, male Wistar rat (in vivo); settings: sc
Experimental: as §1, §2, §3, §4, §5, §6, §7, §10
25 minutes after the treatment (i.e. 5 minutes before decapitation), the animals are observed in their cages and the presence or absence of FBP is noted.
as §11, §8
For the dose-response for induction and inhibition of FBP, the effective doses 50 (ED50) (doses at which 50% of the animals show a response) were calculated by the method of Litchfield and Wilcoxon.
as §9

[6] = hot ligand [3]H-8-OH-DPAT 0.4 nM, rat hippocampus membranes, 25° C., 30 minutes
[7] = 1 h, read-out: Flat body posture ED50 (95% C.L.), antagonism of 8-OH-DPAT, inhibition of FBP, 8-OH-DPAT 0.16 mg/kg s.c., compound s.c. 60 min before test
[8] = induction of FBP, s.c., dose at which 50% of the animals show a response, read-out: Flat body posture ED50 (95% C.L.), agonist response

Row | Structure (SMILES) | Hypothermia M.E.D. (5-HT1A receptors [1]) | ED50 (5-HT1A receptors [1]) | Affinity (pKi) (5-HT1A receptors [2]; [6]) | ED50 (5-HT1A receptors [3]) | Corticosterone secretion M.E.D. (5-HT1A receptors [4]) | ED50 (5-HT1A receptors [4]) | ED50 (5-HT1A receptors [5]; [7]) | ED50 (5-HT1A receptors [5]; [8]) | Ki (5-HT1A receptors [2]; [6]) | pKi (5-HT1A receptors [2]) | Spontaneous tail flicks M.E.D. (5-HT1A receptors [3])
1 | c1ccc2c(c1)CC(CCN1CCN(c3cccc4c3OCCO4)CC1)C2 [Example 20, 4-(benzodioxan-5-yl)-1-[2-(indan-2-yl)-ethyl]-piperazine] | 10.0 mg/kg | 0.58 mg/kg | 9.18 | 0.18 mg/kg | > 2.5 mg/kg | < 2.5 mg/kg | < 2.5 mg/kg | > 2.5 mg/kg |  |  | 
2 | COc1cc2c(cc1OC)C(CCN1CCN(c3cccc4c3OCCO4)CC1)CC2 (racemic) [Example 19, (R,S)-4-(benzodioxan-5-yl)-1-[2-(5,6-dimethoxyindan-1-yl)-ethyl]-piperazine] |  |  |  |  |  |  |  |  | 1.48 nM |  | 
3 | C1=C(CCN2CCN(c3cccc4c3OCCO4)CC2)c2ccccc2C1 [Example 18, 4-(benzodioxan-5-yl)-1-[2-(ind-1-en-1-yl)-ethyl]-piperazine] |  |  |  |  |  |  |  |  |  | 9.09 | 
4 | c1ccc2c(c1)CC2CCCCN1CCN(c2cccc3c2OCCO3)CC1 (racemic) [Example 8, (R,S)-4-(benzodioxan-5-yl)-1-[4-(benzocyclobutan-1-yl)-butyl]-piperazine] |  |  |  |  |  |  |  |  |  | 8.80 | 
5 | c1ccc2c(c1)CC2CCCN1CCN(c2cccc3c2OCCO3)CC1 (racemic) [Example 13, (R,S)-4-(benzodioxan-5-yl)-1-[3-(benzocyclobutan-1-yl)-propyl]-piperazine] | 10.0 mg/kg | 0.21 mg/kg |  | 0.13 mg/kg | 10.0 mg/kg | 1.27 mg/kg | 0.57 mg/kg | > 10 mg/kg |  |  | > 10.0 mg/kg
6 | c1ccc2c(c1)CCC2CCCN1CCN(c2cccc3c2OCCO3)CC1 (racemic) [Example 23, (R,S)-4-(benzodioxan-5-yl)-1-[3-(indan-1-yl)-propyl]piperazine] | 5.0 mg/kg | 0.4 mg/kg |  | 0.56 mg/kg | > 2.5 mg/kg | < 2.5 mg/kg | 0.29 mg/kg | 10 mg/kg |  |  | 
7 | c1ccc2c(c1)CC2CCN1CCN(c2cccc3c2OCCO3)CC1 (racemic) [Example 2, (R,S)-4-(benzodioxan-5-yl)-1-[2-(benzocyclobutan-1-yl)-ethyl]-piperazine] | 40.0 mg/kg | 0.65 mg/kg |  | 0.085 mg/kg | 10.0 mg/kg | 0.66 mg/kg | 0.76 mg/kg | > 20 mg/kg |  | 9.21 | > 10.0 mg/kg
8 | c1ccc2c(c1)CC2CCN1CCN(c2cccc3c2OCCCO3)CC1 (racemic) [Example 3, (R,S)-4-[benzo(1,5)dioxepin-6-yl]-1-[2-(benzocyclobutan-1-yl)-ethyl]-piperazine] | > 20.0 mg/kg | 1.64 mg/kg |  | 0.32 mg/kg | > 10.0 mg/kg | 2.15 mg/kg | 1.55 mg/kg | > 10 mg/kg |  |  | > 10.0 mg/kg
9 | c1ccc2c(c1)CCC2CCN1CCN(c2cccc3c2OCCO3)CC1 (racemic) [Example 22, (R,S)-4-(benzodioxan-5-yl)-1-[2-(indan-1-yl)-ethyl]-piperazine] | > 40.0 mg/kg | 1.19 mg/kg |  | 0.74 mg/kg | > 10.0 mg/kg | 1.92 mg/kg | 1.03 mg/kg | > 10 mg/kg |  |  | > 10.0 mg/kg
10 | COc1cc2c(cc1OC)C(CCN1CCN(c3cccc4c3OCCO4)CC1)C2 (racemic) [Example 17, (R,S)-4-(benzodioxan-5-yl)-1-[2-(4,5-dimethoxybenzocyclobutan-1-yl)-ethyl]-piperazine] |  |  |  |  |  |  |  |  | 3.47 nM |  | 
11 | COc1ccc2c(c1)C(CCN1CCN(c3cccc4c3OCCO4)CC1)C2 (racemic) [Example 16, (R,S)-4-(benzodioxan-5-yl)-1-[2-(5-methoxybenzocyclobutan-1-yl)-ethyl]-piperazine] |  |  |  |  |  |  |  |  | 1.41 nM |  | 
